# Results reported in paper PMC9822497, “Identification of Polyphenol Derivatives as Novel SARS-CoV-2 and DENV Non-Nucleoside RdRp Inhibitors” (Molecules, 2022).
# Like-named read-outs stand apart in the source and are kept apart here.
# What was measured:
# [1] = target: SARS-CoV-2 RdRp complex nsp12/nsp8/nsp7 (Severe acute respiratory syndrome coronavirus 2, UniProt P0DTD1); test: biochemical; settings: for inhibition at 50 µM: read-out: Inhibition Rate (%); for IC50: seven concentrations 0.4 to 100 μM, mean ± SD of two independent experiments, read-out: IC50 against SARS-CoV-2 RdRp
# SARS-CoV-2 [2] = test: microbe, parasite or virus in culture; type: cell-based; settings: for EC50: Severe acute respiratory syndrome coronavirus 2, Vero C1008
# in vitro [3] = settings: African green monkey
# SARS-CoV-2 [4] = settings: cited from earlier work
# [5] = target: Dengue virus RdRp (DENV NS5) (Dengue virus type 3, UniProt Q6YMS4); test: Fluorescent plate DENV RdRp assay; type: biochemical; settings: for IC50: purified recombinant Dengue virus RdRp, average ± SD of 2 independent experiments; for Detectable inhibition towards DENV RdRp: screen of Table 1 compounds
# Dengue virus RdRp (DENV NS5), sequence (Q6YMS4 2491-3390 limits assumed): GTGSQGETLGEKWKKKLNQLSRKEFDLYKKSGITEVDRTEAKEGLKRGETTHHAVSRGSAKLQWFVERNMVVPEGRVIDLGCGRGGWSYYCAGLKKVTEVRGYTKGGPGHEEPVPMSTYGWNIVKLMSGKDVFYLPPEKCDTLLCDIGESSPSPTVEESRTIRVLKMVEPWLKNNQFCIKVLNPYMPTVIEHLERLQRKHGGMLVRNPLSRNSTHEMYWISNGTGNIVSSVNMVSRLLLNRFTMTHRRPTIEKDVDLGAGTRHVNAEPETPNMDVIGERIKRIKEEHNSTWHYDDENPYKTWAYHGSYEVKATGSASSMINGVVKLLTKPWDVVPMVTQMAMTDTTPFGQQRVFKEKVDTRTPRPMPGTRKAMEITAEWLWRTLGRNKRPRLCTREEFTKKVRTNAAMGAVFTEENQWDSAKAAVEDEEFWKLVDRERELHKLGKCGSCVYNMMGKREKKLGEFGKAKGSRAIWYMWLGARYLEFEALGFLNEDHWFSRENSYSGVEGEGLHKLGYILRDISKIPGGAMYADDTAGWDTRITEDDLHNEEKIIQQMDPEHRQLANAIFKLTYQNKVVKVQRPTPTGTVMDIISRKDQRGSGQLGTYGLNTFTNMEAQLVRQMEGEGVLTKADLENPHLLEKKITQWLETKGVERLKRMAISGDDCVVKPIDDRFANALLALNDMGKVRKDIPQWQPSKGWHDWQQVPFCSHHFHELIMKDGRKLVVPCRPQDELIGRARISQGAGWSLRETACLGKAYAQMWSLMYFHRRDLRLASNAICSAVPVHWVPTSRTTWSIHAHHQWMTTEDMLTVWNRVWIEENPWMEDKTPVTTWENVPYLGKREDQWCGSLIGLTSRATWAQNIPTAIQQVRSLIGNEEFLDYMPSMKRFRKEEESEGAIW
# Description: To further exploit pan-RNA virus inhibition of the compounds in Table 1, the compounds were evaluated as potential inhibitors of the RdRp domain of DENV NS5. We used a fluorescent-based assay to screen the compounds from Table 1 as potential DENV RdRp inhibitors.
# Expression and purification of recombinant Dengue virus NS5 has been described previously. Florescent plate assay based on poly rC RNA and the fluorescent dye PicoGreen was well established for screening inhibitors against Dengue virus RdRp activity. RdRp assays were performed in a 60 μL reaction mixture containing 1.5 μM DENV NS5, 1 µg poly rC, 100 μM GTP, various concentrations of compounds, 5% DMSO, 40 mM Tris–HCl (pH 7.0), 2 mM MnCl2, and 5 mM DTT. The reaction was incubated at 30 °C for 60 min and terminated with 10 mM EDTA after which 100 μL of 200-fold diluted fluorescent dye PicoGreen in TE buffer was added to each well and incubated for 5 min at room temperature. Microplate reader was used to quantitate the amount of dsRNA Fluorescence, under excitation and emission wavelengths of 480 and 520 nm, respectively. Dose-response data were analyzed by nonlinear regression using GraphPad Prism 9.2.0 software. The mean of IC50 values and standard deviation (SD) were determined from the results of two independent experiments.
# DENV3 [6] = test: DENV3 cell-based qRT-PCR antiviral assay in A549 cells; settings: for EC50 / Selective Index: DENV3/A549
# Description: The virus DENV3 clinical strain and A549 cells were used in the cell-based qRT-PCR antiviral assays. Evaluation of antiviral activity was performed as described previously. Briefly, cells infected by dengue virus in the presence of 5-fold serial dilutions of compounds were maintained for 72 h. Supernatant was collected and the virus yield was measured by Cells Direct One-step qRT-PCR kit (Thermo Fisher), according to manufacturer’s instructions. Dose-response data were analyzed by nonlinear regression using GraphPad Prism software. The toxicity of compounds was evaluated in standard MTS analysis without virus in A549 cell line. Graphpad Prism 9.2.0 was used to calculate EC50 (half maximal effective concentration) and CC50 (half cytotoxic concentration) values.
# in vitro [7] = settings: human
# DENV = test system: DENV; parameters: method as in PMID 26574011, PMID 33160000; settings: cited from earlier work
# DENV2 = test system: DENV2; parameters: method as in PMID 34424050; settings: DENV2 in vitro; cited from earlier work
# DENV3 [8] = test system: DENV3; parameters: method as in PMID 34424050; settings: DENV3 in vitro; cited from earlier work
# [9] = preliminary screening, single concentration of 50 μM
molecule,measurement,setting,value
"O=c1cc(-c2ccccc2)oc2cc(O)c(O)c(O)c12 [Baicalein, reference compound]",Inhibition of RdRp activity at 10 μM (gel),[1],remained partially active
same,Selective Index,SARS-CoV-2 [2],19.1
same,EC50,SARS-CoV-2 [2],4.5 µM
same,CC50,in vitro [3],86 µM
O=C(O)[C@H]1O[C@@H](Oc2cc3oc(-c4ccccc4)cc(=O)c3c(O)c2O)[C@H](O)[C@@H](O)[C@@H]1O [Baicalin],EC50,SARS-CoV-2 [4]; SARS-CoV-2 inhibitors,9 µM
COc1ccc(CNC(=O)C2CN(S(=O)(=O)c3ccc(N)cc3)CCN2C(=O)c2cc(O)c(O)c(O)c2)cc1 (centres unmarked) [DF-35],inhibition at 50 µM,[1],81%
same,melting point,,192 to 195 °C
Nc1ccc(S(=O)(=O)N2CCN(C(=O)c3cc(O)c(O)c(O)c3)C(C(=O)NCc3ccco3)C2)cc1 (centres unmarked) [DF-36],Inhibition of RdRp activity at 10 μM (gel),[1],remained partially active
same,inhibition at 50 µM,[1],87%
same,melting point,,181 to 184 °C
Nc1ccc(S(=O)(=O)N2CCN(C(=O)c3cc(O)c(O)c(O)c3)C(C(=O)NCc3ccc(-c4ccccc4)cc3)C2)cc1 (centres unmarked) [DF-47],Inhibition of RdRp activity at 10 μM (gel),[1],remained partially active
same,inhibition at 50 µM,[1]; [9],92%
same,IC50,[1],9.2 ± 1.1 µM
same,IC50,[5],14 ± 2.3 µM
same,Detectable inhibition towards DENV RdRp,[5],detectable inhibition
same,Antiviral activity against SARS-CoV-2 in vitro,SARS-CoV-2 [2],no significant antiviral activity
same,EC50,SARS-CoV-2 [2],> 100 µM
same,Inhibition of DENV3 in A549 cells,DENV3 [6],moderate inhibition
same,EC50,DENV3 [6],51.9 ± 26.3 µM
same,Selective Index,DENV3 [6],>1.9
same,melting point,,193 to 196 °C
same,CC50,in vitro [3],> 100 µM
same,CC50,in vitro [7],> 100 µM
N#Cc1ccc(S(=O)(=O)N2CCN(C(=O)c3cc(O)c(O)c(O)c3)C(C(=O)NCc3ccc(-c4ccccc4)cc3)C2)cc1 (centres unmarked) [DF-51],Inhibition of RdRp activity at 10 μM (gel),[1],remained partially active
same,inhibition at 50 µM,[1]; [9],90%
same,IC50,[1],22 ± 1.3 µM
same,IC50,[5],4.8 ± 0.7 µM
same,Detectable inhibition towards DENV RdRp,[5],detectable inhibition
same,Antiviral activity against SARS-CoV-2 in vitro,SARS-CoV-2 [2],no significant antiviral activity
same,EC50,SARS-CoV-2 [2],> 89 µM
same,Inhibition of DENV3 in A549 cells,DENV3 [6],moderate inhibition
same,EC50,DENV3 [6],21.5 ± 14.9 µM
same,Selective Index,DENV3 [6],>4.6
same,CC50,in vitro [3],> 100 µM
same,CC50,in vitro [7],> 100 µM
Nc1ccc(S(=O)(=O)N2CCN(C(=O)c3cc(O)c(O)c(O)c3)CC2C(=O)Nc2ccccc2)cc1 (centres unmarked) [DF-57],inhibition at 50 µM,[1],85%
same,melting point,,173 to 176 °C
CN(C(=O)C1CN(C(=O)c2cc(O)c(O)c(O)c2)CCN1S(=O)(=O)c1ccc(N)cc1)c1ccccc1 (centres unmarked) [DF-63],inhibition at 50 µM,[1],75%
same,melting point,,172 to 175 °C
COc1ccc(CNC(=O)C2CN(C(=O)c3cc(O)c(O)c(O)c3)CCN2S(=O)(=O)c2ccc(N)cc2)cc1 (centres unmarked) [DF-64],inhibition at 50 µM,[1],80%
same,melting point,,202 to 205 °C
Nc1ccc(S(=O)(=O)N2CCN(C(=O)c3cc(O)c(O)c(O)c3)CC2C(=O)NCc2cccc3ccccc23)cc1 (centres unmarked) [DF-67],inhibition at 50 µM,[1],83%
same,melting point,,189 to 192 °C
Nc1ccc(S(=O)(=O)N2CCN(C(=O)c3cc(O)c(O)c(O)c3)CC2C(=O)NCc2cccs2)cc1 (centres unmarked) [DF-68],inhibition at 50 µM,[1],73%
same,melting point,,213 to 216 °C
Nc1ccc(S(=O)(=O)N2CCN(C(=O)c3cc(O)c(O)c(O)c3)CC2C(=O)NCc2ccc(-c3ccccc3)cc2)cc1 (centres unmarked) [DF-69],inhibition at 50 µM,[1],72%
same,melting point,,192 to 195 °C
CC(C)(C)OC(=O)N1CCC2(CCN(C(=O)C3CN(C(=O)c4cc(O)c(O)c(O)c4)CCN3S(=O)(=O)c3ccc(N)cc3)C2)C1 (centres unmarked) [DF-71],inhibition at 50 µM,[1],70%
same,melting point,,192 to 195 °C
O=C(NO)c1ncc(CS(=O)(=O)c2ccccc2)c(CO)c1O [DMB220],EC50,DENV,2700 ± 600 nM
CC(C)C(=O)OC[C@H]1O[C@@H](n2ccc(NO)nc2=O)[C@H](O)[C@@H]1O [Molnupiravir],EC50,SARS-CoV-2 [4]; nucleoside RdRp inhibitors,0.3 µM
"CCC(CC)COC(=O)[C@H](C)N[P@](=O)(OC[C@H]1O[C@@](C#N)(c2ccc3c(N)ncnn23)[C@H](O)[C@@H]1O)Oc1ccccc1 [Remdesivir, reference compound]",EC50,SARS-CoV-2 [2],0.046 ± 0.0002 µM
same,CC50,in vitro [3],10.1 µM
Bemnifosbuvir,EC90,SARS-CoV-2 [4],470 nM
same,EC50,DENV2,480 nM
same,EC50,DENV3 [8],770 nM
